Source: patent publication US7439264B2, “Therapeutic compounds” (President and Fellows of Harvard College, priority 2002, dated 2008)
Values joined by “and” are separate entries in the source; they are usually repeats but may differ in a detail not shown here. Equal values may be shown once. “Also recorded” adds a separate entry of the source. Read-outs that look alike come from different tables or passages of the source.

Experiments:
[1] = target: serotonin transporter (SERT) (UniProt A7KAX8); assay: Competition binding with [3H]citalopram at the serotonin transporter
Protocol: (§1) The affinities (IC50) of the compounds for the dopamine and serotonin transporters were determined in competition studies using [3H]2β-carbomethoxy-3β-(4-fluorophenyl)-8-methyl-8-azabicyclo[3.2.1]octane ([^3H]WIN 35,428) to label the dopamine transporter and [^3H]citalopram to label the serotonin transporter. Competition studies were conducted with a fixed concentration of radioligand and a range of concentrations of the test compound. […] The cells were then exhaustively washed to remove non-covalently bound ligand and binding of cocaine (20 nM) and dopamine uptake (Vmax) were compared.

[2] = target: T1, dopamine transporter (DAT) (UniProt Q9GJT6); assay: Competition binding with [3H]WIN 35,428 at the dopamine transporter
T1 construct: Dopamine transporter IC50 (nM) [3H]WIN 35,428; other: unit not given
Protocol: as §1

[3] = target: T2, human dopamine transporter (Homo sapiens, UniProt Q01959); assay: [3H]cocaine binding in hDAT HEK-293 cells after pre-incubation with compound and washing; conditions: for Inhibition of cocaine binding after 24 h (%): 24-h pre-incubation, cells extensively washed, [3H]cocaine 20 nM, HEK-293 hDAT; for irreversible binding to the DAT: 24 hour incubation, then washing
T2 construct: expressed in transfected cells; host or cells: HEK-293

[4] = target: T2, human dopamine transporter; assay: [3H]dopamine uptake in hDAT HEK-293 cells after pre-incubation with compound and washing; assay type: cell-based; parameters: Inhibition of DA uptake after 24 h (%) / Inhibition of DA uptake: concentration or dose not given beside the values; conditions: for Inhibition of DA uptake after 24 h (%): 24-h pre-incubation, cells extensively washed, HEK-293 hDAT; for decrease of [3H]dopamine transport / [3H]Dopamine transport % of control: 24 hour pre-incubation
[5] = target: DAT (Macaca fascicularis, UniProt Q9GJT6); conditions: quoted for known ligands; cited from earlier work
[6] = Table 5, read-out: Serotonin transporter IC50 (nM) [3H]citalopram
[7] = Table 5, read-out: Dopamine transporter IC50 (nM) [3H]WIN 35,428
[8] = 24 hour pre-incubation, O-1893 (1 uM)
[9] = 24 hours, concentration not stated (n=4)
[10] = unit inferred, read-out: SERT (binding, Table 6)
[11] = unit inferred, read-out: DAT (binding, Table 6)
[12] = 24 hour pre-incubation with O-2153

T2 sequence (Q01959 whole entry): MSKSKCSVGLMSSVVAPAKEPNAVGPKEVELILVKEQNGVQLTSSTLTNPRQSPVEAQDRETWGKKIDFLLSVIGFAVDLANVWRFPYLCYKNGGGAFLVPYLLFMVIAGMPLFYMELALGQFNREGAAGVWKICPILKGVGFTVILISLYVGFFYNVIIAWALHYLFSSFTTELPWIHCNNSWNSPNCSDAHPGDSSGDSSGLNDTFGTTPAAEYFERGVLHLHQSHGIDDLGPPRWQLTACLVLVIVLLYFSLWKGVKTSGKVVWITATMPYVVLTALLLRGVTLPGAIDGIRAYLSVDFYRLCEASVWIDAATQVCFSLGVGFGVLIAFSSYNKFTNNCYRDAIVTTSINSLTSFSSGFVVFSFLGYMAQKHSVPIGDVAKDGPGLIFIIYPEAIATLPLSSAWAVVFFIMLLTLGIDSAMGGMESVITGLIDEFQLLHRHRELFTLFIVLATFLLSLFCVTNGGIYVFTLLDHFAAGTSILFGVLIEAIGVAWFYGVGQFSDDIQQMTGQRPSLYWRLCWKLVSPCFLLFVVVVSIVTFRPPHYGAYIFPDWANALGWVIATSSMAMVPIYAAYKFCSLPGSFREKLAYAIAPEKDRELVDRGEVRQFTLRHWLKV
DAT, sequence (Q9GJT6 whole entry): as the sequence (Q01959 whole entry) above, with V24M, I137V, P194S, S198G, D200N, S201G, S202P counted along it

SMILES: C=CCCC(=O)OCC1C2CCC(CC1c1ccc(Cl)c(Cl)c1)O2 (stereo not drawn) [Compound O-1893, pent-4-enoic acid-(3α-(3,4-dichlorophenyl)-8-oxabicyclo[3.2.1]oct-2β-yl)methyl ester]
- IC50 [1, 6]: 593 nM
- IC50 [2, 7]: 20 nM
- Inhibition of cocaine binding after 24 h (%) [3]: 63%
- [3H]cocaine binding % of control ([3]; 1 hour pre-incubation): 12 % of control and 10 % of control and 7 % of control
- irreversible binding to the DAT [3]: no irreversible binding took place
- decline of specific [3H]cocaine binding sites ([3]; 24 hour pre-incubation, higher concentration (5 uM, different cells)): 62%
- Tot- NS (dpms) [3, 8]: 3,154 dpms and 3,853 dpms and 4,913 dpms and 6,331 dpms
- [3H]cocaine binding % of control [3, 8]: 45 % of control and 43 % of control and 42 % of control and 49 % of control
- reduction of [3H]cocaine binding (CDPM) [3, 9]: more than 50%
- Inhibition of DA uptake after 24 h (%) [4]: 23%
- Inhibition of DA uptake after 24 h (%) ([4]; listed as 3): much reduced; also recorded: no inhibition
- Dopamine transport % of control ([4]; 1 hour pre-incubation): 29 % of control and 43 % of control and 27 % of control
- decrease of [3H]dopamine transport ([4]; 1 uM): 5%
- decrease of [3H]dopamine transport ([4]; higher concentration (5 uM, different cells)): 23% and 22%
- [3H]Dopamine transport % of control ([4]; O-1893 (1 uM)): 91 % of control and 98 % of control and 95 % of control
- [3H]Dopamine transport % of control ([4]; O-1893-2 (5 uM, different cells), 5 µM): 80 % of control and 72 % of control and 81 % of control and 90 % of control and 67 % of control
- reduction of [3H]dopamine transport [4, 9]: reduced to a lesser extent
- transporter affinity for dopamine ([4]; initially, within one hour of preincubation (n=3)): reduced

SMILES: O=C(OCCN1C(=O)C=CC1=O)C1C(c2ccc(F)cc2)CC2CCC1N2CCN1C(=O)C=CC1=O (centres unmarked) [Compound O-2315]
- IC50 [1, 10]: 14000 nM
- IC50 [2, 11]: 2000 nM

SMILES: C=CCOC(=O)C1C2CCC(CC1c1ccc(Cl)c(Cl)c1)O2 (centres unmarked) [Compound O-2227]
- IC50 [1, 10]: 32 nM
- IC50 [2, 11]: 3 nM
- Inhibition of Cocaine Binding ([3]; Table 6, incub time 1 h): 0%
- Inhibition of Cocaine Binding ([3]; Table 6, incub time 24 h): 55%
- Inhibition of DA uptake ([4]; Table 6, incub time 1 h): 0%
- Inhibition of DA uptake ([4]; Table 6, incub time 24 h): 40%

SMILES: CC(C)CC(=O)OCC1C2CCC(CC1c1ccc(Cl)c(Cl)c1)O2 (stereo not drawn) [Compound O-2059, 3-Methylbutanoic acid-[3α-(3,4-dichlorophenyl)-8-oxabicyclo[3.2.1]oct-2β-yl]methyl ester]
- IC50 [1, 6]: 515 nM
- IC50 [2, 7]: 75 nM
- Inhibition of cocaine binding after 24 h (%) [3]: 60%
- Inhibition of DA uptake after 24 h (%) [4]: 60%

SMILES: CCN1C(=O)C=CC1=O [N-Ethylmaleimide, N-ethylmaleimide, reference compound]
- IC50 [1, 6]: > 100000 nM
- IC50 ([2]; read-out: Dopamine transporter IC50 (nM) [3H]WIN 35,428, Table 5): > 100000 nM
- Inhibition of cocaine binding after 24 h (%) [3]: 35%
- irreversible binding to the DAT [3]: did manifest irreversible binding
- Inhibition of DA uptake after 24 h (%) [4]: 35%

SMILES: C=CCCC(=O)OCC1C(c2ccc(F)cc2)CC2CCC1N2C (centres unmarked) [Compound O-2517]
- IC50 [2, 11]: 60 nM

SMILES: C=CCCCOCC1C2CCC(CC1c1ccc(Cl)c(Cl)c1)O2 (stereo not drawn) [Compound O-2153, 3α-(3,4-dichlorophenyl)-2β-pent-4-enyloxymethyl-8-oxabicyclo[3.2.1]octane]
- IC50 [1, 6]: 755 nM
- IC50 [2, 7]: 58 nM
- Inhibition of cocaine binding after 24 h (%) [3]: 80%
- irreversible binding to the DAT [3]: bound irreversibly
- Tot- NS (dpms) (column head not given, as Table 3) [3, 12]: 12,216 and 6,792
- [3H]cocaine binding % of control (column head not given, as Table 3) [3, 12]: 28 and 18
- Inhibition of DA uptake after 24 h (%) [4]: 40%
- [3H]Dopamine transport % of control (column head not given, as Table 3) [4, 12]: 51 and 54

SMILES: O=C(OCCCN1C(=O)C=CC1=O)C1C(c2ccc(F)cc2)CC2CCC1N2CCN1C(=O)C=CC1=O (centres unmarked) [Compound O-2335]
- IC50 [1, 10]: 10000 nM
- IC50 [2, 11]: 300 nM

SMILES: COC(=O)C1C(c2ccc(F)cc2)CC2CCC1N2CCOC(C)=O (stereo not drawn) [Compound O-1103, 2β-Carbomethoxy-3β-(4-fluorophenyl)-8-(2-acetoxyethyl)-8-azabicyclo[3.2.1]octane]
- IC50 ([1]; read-out: SERT (binding, Table 6), unit inferred): 200 nM
- IC50 ([2]; read-out: DAT (binding, Table 6), unit inferred): 20 nM
- Inhibition of Cocaine Binding ([3]; Table 6, incub time 24 h): 0%
- Inhibition of DA uptake ([4]; Table 6, incub time 24 h): 0%

SMILES: COC(=O)C1C2CCC(CC1c1ccc(Cl)c(Cl)c1)O2 (stereo not drawn) [2β-carbomethoxy-3α-(3′,4′-dichlorophenyl)-8-oxabicyclo[3.2.1]octane]
- IC50 [5]: 2.34 nM

SMILES: COC(=O)C1C(c2ccc(F)cc2)CC2CCC1N2C (stereo not drawn) [WIN 35,428, 2β-carbomethoxy-3β-(4-fluorophenyl)-8-methyl-8-azabicyclo[3.2.1]octane, reference compound]
- IC50 [1, 6]: 160 nM
- IC50 [2, 7]: 11 nM
- IC50 [5]: 11 nM
- irreversible binding to the DAT [3]: did not bind irreversibly

SMILES: COCC(=O)OCCCN1C2CCC1C(C(=O)OC)C(c1ccc(F)cc1)C2 (stereo not drawn) [Compound O-1071, 2β-Carbomethoxy-3β-(4-fluorophenyl)-8-(3-methoxyacetoxypropyl)-8-azabicyclo[3 2.1]octane]
- IC50 [1, 10]: 3000 nM
- IC50 [2, 11]: 125 nM
- Inhibition of Cocaine Binding ([3]; Table 6, incub time 24 h): 0%
- Inhibition of DA uptake ([4]; Table 6, incub time 24 h): 0%

SMILES: C=CCCNCC1C(c2ccc(F)cc2)CC2CCC1N2C (centres unmarked) [Compound O-2583]
- IC50 [2, 11]: 500 nM

SMILES: C=CCCNC(=O)C1C(c2ccc(F)cc2)CC2CCC1N2C (centres unmarked) [Compound O-2578]
- IC50 [2, 11]: 800 nM

SMILES: CCN1C(=O)C=CC1=O [Compound O-1765]
- Inhibition of Cocaine Binding ([3]; Table 6, incub time 24 h): 35%
- Inhibition of DA uptake ([4]; Table 6, incub time 24 h): 35%

SMILES: COC(=O)C1C(c2ccc(F)cc2)CC2CCC1N2CCN1C(=O)C=CC1=O (stereo not drawn) [Compound O-1233, 2β-Carbomethoxy-3β-(4-fluorophenyl)-8-(2-maleimidoethyl)-8-azabicyclo[3.2.1]octane]
- IC50 [1, 10]: 3000 nM
- IC50 [2, 11]: 237 nM
- Inhibition of Cocaine Binding ([3]; Table 6, incub time 1 h): 50%/1 h

SMILES: COC(=O)[C@H]1[C@@H](OC(=O)c2ccccc2)C[C@@H]2CC[C@H]1N2C [(−)-Cocaine, cocaine, reference compound]
- IC50 [1, 6]: 270 nM
- IC50 [2, 7]: 95 nM

SMILES: CCCCC(=O)OCC1C2CCC(CC1c1ccc(Cl)c(Cl)c1)O2 (stereo not drawn) [Compound O-2102, Pentanoic acid-[3α-(3,4-dichlorophenyl)-8-oxabicyclo[3.2.1]oct-2β-yl]methyl ester]
- IC50 [1, 6]: 917 nM
- IC50 [2, 7]: 71 nM
- Inhibition of cocaine binding after 24 h (%) [3]: 0%
- Inhibition of DA uptake after 24 h (%) [4]: 0%

SMILES: O=C(OCCCN1C(=O)C=CC1=O)C1C(c2ccc(F)cc2)CC2CCC1N2CCCN1C(=O)C=CC1=O (centres unmarked) [Compound O-2492]
- IC50 [1, 10]: 2000 nM
- IC50 [2, 11]: 237 nM

SMILES: O=C(CCC1CO1)OCC1C2CCC(CC1c1ccc(Cl)c(Cl)c1)O2 (racemic) [Compound O-1834, 3-Oxiranyl-propionic acid [3α-(3,4-dichlorophenyl)-8-oxabicyclo[3.2.1]oct-3β-yl]methyl ester]
- IC50 [1, 6]: 292 nM
- IC50 [1, 10]: 294 nM
- IC50 [2, 7]: 17 nM
- IC50 [2, 11]: 17 nM
- Inhibition of cocaine binding after 24 h (%) [3]: 18%
- Inhibition of Cocaine Binding ([3]; Table 6, incub time 24 h): 18%
- Inhibition of DA uptake after 24 h (%) [4]: 68%
- Inhibition of DA uptake ([4]; Table 6, incub time 24 h): 68%

SMILES: COC(=O)C1C(c2ccc(F)cc2)CC2CCC1N2CCOC(=O)CCC1CO1 (stereo not drawn) [Compound O-1899, 2β-Carbomethoxy-3β-(4-fluorophenyl)-8-[2-(3-oxiranylpropionyloxy)ethyl]-8-azabicyclo[3.2.1]octane]
- IC50 [1, 10]: 230 nM
- IC50 [2, 11]: 53 nM
- Inhibition of Cocaine Binding ([3]; Table 6, incub time 24 h): 0%
- Inhibition of Cocaine Binding ([3]; Table 6, incub time 48 h): 40%
- Inhibition of DA uptake ([4]; Table 6, incub time 24 h): 0%
- Inhibition of DA uptake ([4]; Table 6, incub time 48 h): 20%

SMILES: C=CCCCOCC1C(c2ccc(F)cc2)CC2CCC1N2C (centres unmarked) [Compound O-2528]
- IC50 [2, 11]: 41 nM
